Assay results published in patent US20080146669A1, “Novel Chloride Channel Pore Openers” (THE UAB RESEARCH FOUNDATION, priority 2005, published 2008).
One block for each compound: values may come before it.

Tests used:
wild-type CFTR = wild-type CFTR (Homo sapiens, UniProt P13569); experiment: Macroscopic currents in excised inside-out patches from BHK-CFTR cells; format: biochemical; parameters: expressed in transfected cells; provided by J. Hanrahan (McGill University)
Experimental: Cell culture DNA constructs and transfections. Baby hamster kidney (BHK) cells stably expressing wild type human CFTR (BHK-CFTR) were provided by J. Hanrahan (McGill University). BHK-CFTR cells were cultured in Dulbecco's modified Eagle's medium (DMEM (Mediatech)) supplemented with 5% fetal bovine serum (FBS) and 1 mM penicillin-streptomycin. The growth media for the BHK-CFTR cells also contained 0.5 mM methotrexate to maintain selection for CFTR-expressing cells (22). HEK-293T cells were transiently transfected with wild-type or mutant CFTR cDNA using the Lipofectamine transfection kit following manufacturer's recommendations (Invitrogen, Corp). HEK-293T cells were cultured in DMEM. All cells were grown on plastic coverslips for patch clamp recording and were used 2-3 days post-seeding. Electrophysiology and data analysis. Macroscopic and multi-channel currents were recorded in the excised, inside-out configuration. Patch pipettes were pulled from Corning 8161 glass to tip resistances of […] (macroscopic recordings) or 8-10 mOhm (micropatch studies). […] CFTR currents were recorded in symmetrical solution containing (in mM): 140 N-methyl-D-glucaniine-Cl, 3 MgCl2, 1 EGTA and 10 TES. The pH was adjusted to 7.3. Macroscopic currents were evoked using a ramp protocol from +80 to −80 mV with a 10 sec time period. Patches were held at −80 mV or +80 mV for micropatch (multichannel) recordings. All patch clamp experiments were performed at 21-23° C. Signals from macroscopic and single channel recording were filtered at 20 and 200 Hz, respectively. Data acquisition and analysis were performed using pCLAMP8 and pCLAMP9 software (Axon Instruments). Curve fitting for kinetic analysis was performed using Microcal Origin software. Averaged data are presented as mean +/−SEM. Statistical comparisons were made by performing unpaired t-tests unless otherwise indicated. Ussing Chamber Experiments-CFBE41o epithelial cells stably transfected with ΔF508-CFTR or transiently transfected with wild-type CFTR were cultured as electrically resistive monolayers and assayed in Ussing chambers as described (16). ΔF508-CFTR-expressing monolayers were grown at 27° C. for 2-3 days to enhance the surface expression of this temperature-sensitive mutant. A serosal-to-mucosal Cl^− gradient (120 to 1.2 mM) was imposed, followed by amiloride addition (100 μM) to block Na^+ currents. Compounds were added to both chambers at the indicated concentrations. A 3-mV voltage pulse was imposed every 100 s to monitor transepithelial resistance.

R347D-CFTR = target: T1, R347D-CFTR (Homo sapiens, UniProt P13569, R347D); experiment: Macroscopic currents in excised patches from HEK-293T cells transiently transfected with R347D-CFTR; format: biochemical
T1 construct: expressed in transfected cells; host or cells: HEK-293T, transient
Experimental: HEK-293T cells were transiently transfected with wild-type or mutant CFTR cDNA using the Lipofectamine transfection kit following manufacturer's recommendations (Invitrogen, Corp). HEK-293T cells were cultured in DMEM. All cells were grown on plastic coverslips for patch clamp recording and were used 2-3 days post-seeding. […] Macroscopic and multi-channel currents were recorded in the excised, inside-out configuration. Patch pipettes were pulled from Corning 8161 glass to tip resistances of 1.5-3.0 mOhm (macroscopic recordings) or 8-10 mOhm (micropatch studies). CFTR channels were activated following patch excision by exposure of the cytoplasmic face of the patch to catalytic subunit of protein kinase A (PKA; 110 U/ml; Promega) and Mg-ATP (1.5 mM). CFTR currents were recorded in symmetrical solution containing (in mM): 140 N-methyl-D-glucaniine-Cl, 3 MgCl2, 1 EGTA and 10 TES. The pH was adjusted to 7.3. Macroscopic currents were evoked using a ramp protocol from +80 to −80 mV with a 10 sec time period. Patches were held at −80 mV or +80 mV for micropatch (multichannel) recordings. All patch clamp experiments were performed at 21-23° C. Signals from macroscopic and single channel recording were filtered at 20 and 200 Hz, respectively. Data acquisition and analysis were performed using pCLAMP8 and pCLAMP9 software (Axon Instruments). […]

AR-S660A-CFTR = target: T2, AR-S660A-CFTR (Homo sapiens, UniProt P13569, DEL708-835/S660A); experiment: Macroscopic currents in excised HEK-293T patches, R domain deletion mutant, no PKA; format: biochemical; settings: 50 μM
T2 construct: expressed in transfected cells; host or cells: HEK-293T, transient
Experimental: Cell culture DNA constructs and transfections. Baby hamster kidney (BHK) cells stably expressing wild type human CFTR (BHK-CFTR) were provided by J. Hanrahan (McGill University). BHK-CFTR cells were cultured in Dulbecco's modified Eagle's medium (DMEM (Mediatech)) supplemented with 5% fetal bovine serum (FBS) and 1 mM penicillin-streptomycin. The growth media for the BHK-CFTR cells also contained 0.5 mM methotrexate to maintain selection for CFTR-expressing cells (22). HEK-293T cells were transiently transfected with wild-type or mutant CFTR cDNA using the Lipofectamine transfection kit following manufacturer's recommendations (Invitrogen, Corp). HEK-293T cells were cultured in DMEM. All cells were grown on plastic coverslips for patch clamp recording and were used 2-3 days post-seeding. Electrophysiology and data analysis. Macroscopic and multi-channel currents were recorded in the excised, inside-out configuration. Patch pipettes were pulled from Corning 8161 glass to tip resistances of […] (macroscopic recordings) or 8-10 mOhm (micropatch studies). CFTR channels were activated following patch excision by exposure of the cytoplasmic face of the patch to catalytic subunit of protein kinase A (PKA; 110 U/ml; Promega) and Mg-ATP (1.5 mM). CFTR currents were recorded in symmetrical solution containing (in mM): 140 N-methyl-D-glucaniine-Cl, 3 MgCl2, 1 EGTA and 10 TES. […]

CFTR-minus cells = experiment: Currents across patches excised from CFTR-minus (untransfected) cells; format: biochemical
Experimental: (§1) Cell culture DNA constructs and transfections. Baby hamster kidney (BHK) cells stably expressing wild type human CFTR (BHK-CFTR) were provided by J. Hanrahan (McGill University). BHK-CFTR cells were cultured in Dulbecco's modified Eagle's medium (DMEM (Mediatech)) supplemented with 5% fetal bovine serum (FBS) and 1 mM penicillin-streptomycin. The growth media for the BHK-CFTR cells also contained 0.5 mM methotrexate to maintain selection for CFTR-expressing cells (22). HEK-293T cells were transiently transfected with wild-type or mutant CFTR cDNA using the Lipofectamine transfection kit following manufacturer's recommendations (Invitrogen, Corp). HEK-293T cells were cultured in DMEM. All cells were grown on plastic coverslips for patch clamp recording and were used 2-3 days post-seeding. Electrophysiology and data analysis. Macroscopic and multi-channel currents were recorded in the excised, inside-out configuration. Patch pipettes were pulled from Corning 8161 glass to tip resistances of […] (macroscopic recordings) or 8-10 mOhm (micropatch studies). CFTR channels were activated following patch excision by exposure of the cytoplasmic face of the patch to catalytic subunit of protein kinase A (PKA; 110 U/ml; Promega) and Mg-ATP (1.5 mM). CFTR currents were recorded in symmetrical solution containing (in mM): 140 N-methyl-D-glucaniine-Cl, 3 MgCl2, 1 EGTA and 10 TES. The pH was adjusted to 7.3. Macroscopic currents were evoked using a ramp protocol from +80 to −80 mV with a 10 sec time period. Patches were held at −80 mV or +80 mV for micropatch (multichannel) recordings. All patch clamp experiments were performed at 21-23° C. Signals from macroscopic and single channel recording were filtered at 20 and 200 Hz, respectively. Data acquisition and analysis were performed using pCLAMP8 and pCLAMP9 software (Axon Instruments). Curve fitting for kinetic analysis was performed using Microcal Origin software. Averaged data are presented as mean +/−SEM. Statistical comparisons were made by performing unpaired t-tests unless otherwise indicated. Ussing Chamber Experiments-CFBE41o epithelial cells stably transfected with ΔF508-CFTR or transiently transfected with wild-type CFTR were cultured as electrically resistive monolayers and assayed in Ussing chambers as described (16). ΔF508-CFTR-expressing monolayers were grown at 27° C. for 2-3 days to enhance the surface expression of this temperature-sensitive mutant. A serosal-to-mucosal Cl^− gradient (120 to 1.2 mM) was imposed, followed by amiloride addition (100 μM) to block Na^+ currents. Compounds were added to both chambers at the indicated concentrations. A 3-mV voltage pulse was imposed every 100 s to monitor transepithelial resistance.

G551D-CFTR = target: T3, G551D-CFTR (Homo sapiens, UniProt P13569, G551D); experiment: Macroscopic currents in excised patches from HEK-293T cells expressing G551D-CFTR; format: biochemical
T3 construct: expressed in transfected cells; host or cells: HEK-293T, transient
Experimental: as §1, with “Ussing Chamber Experiments-CFBE41o epithelial cells stably transfected with ΔF508-CFTR or transiently transfected with wild-type CFTR were cultured as electrically resistive monolayers and assayed in Ussing chambers as described (16). ΔF508-CFTR-expressing monolayers were grown at 27° C. for 2-3 days to enhance the surface expression of this temperature-sensitive mutant. A serosal-to-mucosal Cl^− gradient (120 to 1.2 mM) was imposed, followed by amiloride addition (100 μM) to block Na^+ currents. Compounds were added to both chambers at the indicated concentrations. A 3-mV voltage pulse was imposed every 100 s to monitor transepithelial resistance.” left out

ΔF508-CFTR [1] = target: T4, ΔF508-CFTR (Homo sapiens, UniProt P13569, DEL508-508); experiment: Macroscopic currents in excised patches from temperature-corrected HEK-293T cells expressing ΔF508-CFTR; format: biochemical; settings: high PKA 110 U/ml without PKI
T4 construct: expressed in transfected cells; host or cells: HEK-293T, transient; grown at 28° C. for 24 hrs
Experimental: as §1

AF508-CFTR = settings: tissue culture cells and mice; reported by Egan et al. (12); cited from earlier work
ΔF508-CFTR [2] = target: T4, ΔF508-CFTR; experiment: Ussing chamber transepithelial chloride currents, temperature-corrected ΔF508-CFTR CFBE41o- monolayers; format: cell-based; settings: 1 μM compound with 1 μM forskolin; N=8-12
Experimental: as §1

wild-type CFTR, sequence (P13569 whole entry): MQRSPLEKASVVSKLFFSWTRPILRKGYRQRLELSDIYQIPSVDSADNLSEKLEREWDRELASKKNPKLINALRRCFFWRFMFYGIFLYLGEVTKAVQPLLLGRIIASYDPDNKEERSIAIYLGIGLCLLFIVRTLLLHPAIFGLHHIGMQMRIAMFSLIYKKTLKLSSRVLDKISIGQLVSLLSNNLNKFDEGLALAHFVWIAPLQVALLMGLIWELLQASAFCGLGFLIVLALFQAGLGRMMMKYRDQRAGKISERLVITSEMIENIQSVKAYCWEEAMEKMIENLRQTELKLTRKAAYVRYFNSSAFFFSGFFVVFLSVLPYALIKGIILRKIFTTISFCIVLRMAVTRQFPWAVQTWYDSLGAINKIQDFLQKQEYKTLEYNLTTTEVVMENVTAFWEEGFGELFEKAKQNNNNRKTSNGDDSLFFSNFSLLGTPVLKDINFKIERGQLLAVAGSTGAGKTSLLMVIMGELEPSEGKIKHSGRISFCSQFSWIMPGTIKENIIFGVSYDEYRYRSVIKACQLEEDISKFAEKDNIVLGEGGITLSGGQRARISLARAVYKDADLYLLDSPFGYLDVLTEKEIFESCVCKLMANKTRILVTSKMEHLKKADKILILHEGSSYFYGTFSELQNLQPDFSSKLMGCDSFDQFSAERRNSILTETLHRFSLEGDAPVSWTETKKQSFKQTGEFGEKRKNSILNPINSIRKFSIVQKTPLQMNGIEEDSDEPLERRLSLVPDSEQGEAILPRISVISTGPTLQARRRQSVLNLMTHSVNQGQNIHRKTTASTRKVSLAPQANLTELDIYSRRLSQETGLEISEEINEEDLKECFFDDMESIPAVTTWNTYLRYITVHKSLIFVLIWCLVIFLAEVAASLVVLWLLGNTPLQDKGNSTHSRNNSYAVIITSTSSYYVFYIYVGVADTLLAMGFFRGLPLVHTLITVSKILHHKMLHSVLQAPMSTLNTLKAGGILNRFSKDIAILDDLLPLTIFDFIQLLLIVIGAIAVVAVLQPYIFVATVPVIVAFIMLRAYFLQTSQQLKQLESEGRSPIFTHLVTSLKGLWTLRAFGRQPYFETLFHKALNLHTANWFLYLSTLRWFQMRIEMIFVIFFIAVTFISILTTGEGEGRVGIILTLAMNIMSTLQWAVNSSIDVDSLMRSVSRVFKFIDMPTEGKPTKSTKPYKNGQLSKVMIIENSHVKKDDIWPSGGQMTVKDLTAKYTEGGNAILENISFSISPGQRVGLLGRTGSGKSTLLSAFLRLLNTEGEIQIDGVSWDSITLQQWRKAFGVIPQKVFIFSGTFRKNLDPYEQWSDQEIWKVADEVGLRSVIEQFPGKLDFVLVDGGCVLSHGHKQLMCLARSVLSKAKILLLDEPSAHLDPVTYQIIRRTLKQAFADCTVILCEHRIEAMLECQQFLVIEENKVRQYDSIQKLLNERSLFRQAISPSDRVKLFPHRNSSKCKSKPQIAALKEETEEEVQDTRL
T4 sequence (P13569 with tags, fused parts or gaps DEL508-508): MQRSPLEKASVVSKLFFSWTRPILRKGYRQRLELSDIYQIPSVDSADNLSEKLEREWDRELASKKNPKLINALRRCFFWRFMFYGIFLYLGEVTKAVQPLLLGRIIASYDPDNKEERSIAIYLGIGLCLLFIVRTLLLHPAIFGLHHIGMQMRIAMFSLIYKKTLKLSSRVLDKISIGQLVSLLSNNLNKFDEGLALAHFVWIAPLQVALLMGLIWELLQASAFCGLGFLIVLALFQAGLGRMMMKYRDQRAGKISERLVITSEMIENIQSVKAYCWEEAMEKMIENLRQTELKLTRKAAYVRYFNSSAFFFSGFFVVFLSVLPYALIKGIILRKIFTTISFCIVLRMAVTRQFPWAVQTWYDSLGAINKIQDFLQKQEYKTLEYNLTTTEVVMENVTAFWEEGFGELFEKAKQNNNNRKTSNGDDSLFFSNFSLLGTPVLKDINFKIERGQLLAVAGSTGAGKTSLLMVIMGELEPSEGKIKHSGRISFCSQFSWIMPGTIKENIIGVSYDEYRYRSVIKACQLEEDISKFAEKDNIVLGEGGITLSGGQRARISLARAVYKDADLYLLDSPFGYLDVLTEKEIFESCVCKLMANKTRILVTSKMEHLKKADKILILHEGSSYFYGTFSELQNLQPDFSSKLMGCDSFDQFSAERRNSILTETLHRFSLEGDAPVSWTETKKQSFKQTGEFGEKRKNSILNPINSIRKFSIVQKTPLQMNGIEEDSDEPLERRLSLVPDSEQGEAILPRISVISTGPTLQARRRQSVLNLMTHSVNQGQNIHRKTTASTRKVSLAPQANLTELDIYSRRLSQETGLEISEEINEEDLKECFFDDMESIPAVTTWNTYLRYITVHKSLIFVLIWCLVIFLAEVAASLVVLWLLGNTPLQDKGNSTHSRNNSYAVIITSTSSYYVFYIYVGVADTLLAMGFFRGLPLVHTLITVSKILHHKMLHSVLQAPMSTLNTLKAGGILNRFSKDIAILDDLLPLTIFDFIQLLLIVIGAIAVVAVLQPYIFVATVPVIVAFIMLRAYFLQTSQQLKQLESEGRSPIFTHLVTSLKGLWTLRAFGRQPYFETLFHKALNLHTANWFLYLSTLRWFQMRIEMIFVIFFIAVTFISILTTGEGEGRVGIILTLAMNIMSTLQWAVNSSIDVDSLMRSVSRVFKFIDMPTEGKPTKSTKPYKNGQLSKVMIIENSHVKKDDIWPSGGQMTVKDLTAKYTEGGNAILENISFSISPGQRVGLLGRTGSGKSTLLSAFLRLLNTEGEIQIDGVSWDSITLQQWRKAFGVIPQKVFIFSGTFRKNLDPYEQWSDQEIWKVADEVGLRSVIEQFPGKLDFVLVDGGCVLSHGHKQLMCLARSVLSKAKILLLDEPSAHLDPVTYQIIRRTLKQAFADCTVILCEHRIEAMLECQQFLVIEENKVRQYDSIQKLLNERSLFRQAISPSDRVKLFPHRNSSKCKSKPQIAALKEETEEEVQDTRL
T1 sequence (P13569 whole entry R347D): as the sequence (P13569 whole entry) above, with R347D counted along it
T3 sequence (P13569 whole entry G551D): as the sequence (P13569 whole entry) above, with G551D counted along it
T2 sequence (P13569 with tags, fused parts or gaps S660A/DEL708-835): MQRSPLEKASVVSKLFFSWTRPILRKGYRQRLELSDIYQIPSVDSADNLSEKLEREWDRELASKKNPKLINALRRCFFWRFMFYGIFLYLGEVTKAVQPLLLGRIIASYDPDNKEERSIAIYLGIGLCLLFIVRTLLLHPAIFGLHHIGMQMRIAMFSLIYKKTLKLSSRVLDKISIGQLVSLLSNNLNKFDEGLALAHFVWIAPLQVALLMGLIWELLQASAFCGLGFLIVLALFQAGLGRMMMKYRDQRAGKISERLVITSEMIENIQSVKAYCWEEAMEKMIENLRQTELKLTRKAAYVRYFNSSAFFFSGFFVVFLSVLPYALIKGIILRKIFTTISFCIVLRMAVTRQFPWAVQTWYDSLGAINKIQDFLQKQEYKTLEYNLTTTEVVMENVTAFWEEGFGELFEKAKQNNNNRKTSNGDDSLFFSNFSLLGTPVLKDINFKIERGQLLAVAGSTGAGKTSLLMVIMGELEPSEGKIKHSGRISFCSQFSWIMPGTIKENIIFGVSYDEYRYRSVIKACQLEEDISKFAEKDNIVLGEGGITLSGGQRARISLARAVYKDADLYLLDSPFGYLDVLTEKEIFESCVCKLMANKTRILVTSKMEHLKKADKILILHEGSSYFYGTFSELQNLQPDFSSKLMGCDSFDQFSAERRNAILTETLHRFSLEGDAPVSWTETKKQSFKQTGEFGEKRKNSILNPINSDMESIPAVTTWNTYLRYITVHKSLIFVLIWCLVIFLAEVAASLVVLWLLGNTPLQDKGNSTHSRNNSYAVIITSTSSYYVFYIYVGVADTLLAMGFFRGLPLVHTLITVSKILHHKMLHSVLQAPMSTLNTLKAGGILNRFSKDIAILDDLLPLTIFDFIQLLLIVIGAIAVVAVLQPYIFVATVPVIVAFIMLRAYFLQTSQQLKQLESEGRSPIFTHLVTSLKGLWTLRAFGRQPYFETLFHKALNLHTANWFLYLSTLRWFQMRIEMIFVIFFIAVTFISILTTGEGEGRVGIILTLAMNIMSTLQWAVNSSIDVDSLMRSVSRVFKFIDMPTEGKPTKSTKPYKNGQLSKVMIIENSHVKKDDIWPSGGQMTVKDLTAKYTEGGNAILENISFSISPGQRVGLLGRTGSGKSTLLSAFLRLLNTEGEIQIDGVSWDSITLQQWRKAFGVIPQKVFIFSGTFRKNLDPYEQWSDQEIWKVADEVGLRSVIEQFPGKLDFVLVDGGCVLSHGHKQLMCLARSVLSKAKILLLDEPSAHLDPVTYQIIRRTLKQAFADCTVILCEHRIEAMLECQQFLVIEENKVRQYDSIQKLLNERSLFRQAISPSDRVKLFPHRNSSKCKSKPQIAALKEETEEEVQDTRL

Structure (SMILES): NC(CCc1ccccc1)C(=O)O (stereo not drawn) [APB, reference compound]
stimulation of thiolated CFTR channels (wild-type CFTR; 400 μM, same conditions as FIG. 1A): fails to stimulate

Structure (SMILES): N#CS [SCN^−, reference compound]
increased CFTR currents, thiolated channels (wild-type CFTR; 10 mM): neither

Structure (SMILES): O=c1c(-c2ccc(O)cc2)coc2cc(O)cc(O)c12 [genistein, reference compound]
potentiation of the forskolin effect on ΔF508-CFTR transepithelial currents (ΔF508-CFTR [2]): failed to potentiate the forskolin response

Structure (SMILES): COc1ccc(Cl)cc1C(=O)NCCc1ccc(S(=O)(=O)NC(=O)NC2CCCCC2)cc1 [glibenclamide]
current induced at depolarizing potential in patches excised from CFTR-minus cells (CFTR-minus cells): absent

Further lines, with some results ahead:

increased CFTR currents, thiolated channels (wild-type CFTR; 0.5 mM): neither
Structure (SMILES): O=C(O)c1ccccc1Nc1ccccc1 [DPC, reference compound]

effect on currents of moderately phosphorylated R347D-CFTR channels (R347D-CFTR; low doses, high PKA followed by PKI): stimulates currents in both directions
effect on currents in the absence of PKA (AR-S660A-CFTR): markedly stimulate
effect on G551D-CFTR activity (G551D-CFTR; 200-400 μM): markedly stimulated
effect on ΔF508-CFTR macroscopic currents (ΔF508-CFTR [1]; 100 μM): dramatically stimulated
effect on currents of moderately phosphorylated wild-type channels (wild-type CFTR; 5-300 μM, high PKA followed by PKI, seven experiments): voltage-dependent block at all doses
effect on currents of highly phosphorylated CFTR channels (wild-type CFTR; continuous high PKA 110 U/ml without PKI): Only voltage-dependent block
Structure (SMILES): O=C(O)c1cc([N+](=O)[O-])ccc1NCCCc1ccccc1 [NPPB, 5-nitro-2-(3-phenylpropyl-amino)-benzoic acid, reference compound]
stimulation of R347D-CFTR currents at depolarizing potentials compared with wild type (R347D-CFTR; all levels of phosphorylation): to a greater extent than for wild type CFTR
current induced at depolarizing potential in patches excised from CFTR-minus cells (CFTR-minus cells): absent
effect on currents across a patch from untransfected HEK-293T cells (CFTR-minus cells; untransfected HEK-293T): neither
concentration dependence of G551D-CFTR activation compared to the wild type channel (G551D-CFTR; NPPB titration, wild type activated with low PKA): appreciable shift toward higher concentrations
effect on macroscopic current of thiolated (glutathionylated) CFTR channels (wild-type CFTR; 200 μM, high PKA 110 U/ml, 1.5 mM MgATP, PKI, diamide/GSH 20 μM): a large increase in current at depolarizing voltages
effect on currents of poorly phosphorylated, not thiolated CFTR channels (wild-type CFTR; 30-230 μM, low PKA 2 U/ml followed by PKI): stimulated CFTR currents at depolarizing potentials
effect on currents of poorly phosphorylated CFTR channels at higher concentrations (wild-type CFTR; higher concentrations of NPPB, low PKA then PKI): block was observed at all recording potentials

effect on CFTR channel activity (wild-type CFTR; 100 μM, data not shown): weak effect
Structure (SMILES): NS(=O)(=O)c1cc([N+](=O)[O-])ccc1NCCCc1ccccc1 [NPPB-sulf]

effect on ΔF508-CFTR macroscopic currents (ΔF508-CFTR [1]; 10 μM): dramatically stimulated
time course and reversibility of the stimulation of CFTR current (wild-type CFTR): transient
voltage dependence of the stimulation of CFTR current (wild-type CFTR): voltage-independent
Structure (SMILES): COc1cc(/C=C/C(=O)CC(=O)/C=C/c2ccc(O)c(OC)c2)ccc1O [curcumin]
biosynthetic maturation and functional correction of the ΔF508-CFTR mutant (AF508-CFTR): promotes the biosynthetic maturation and functional correction
effect on moderately phosphorylated CFTR channels (wild-type CFTR; 0.5-40.5 μM, six experiments): stimulates moderately phosphorylated CFTR channels
